Data on 4 molecules can be found in ChEMBL document CHEMBL1138892, “Synthesis of Hsp90 dimerization modulators” (Bioorg Med Chem Lett, 2006).

The test addresses Heat shock protein HSP90 (Homo sapiens, UniProt P07900+P08238).
Description: Displacement of GM-BODIPY from Hsp90
In the case of `COC1=C2C[C@@H](C)C[C@H](OC)[C@H](O)[C@@H](C)/C=C(\C)[C@H](OC(N)=O)[C@@H](OC)/C=C\C=C(/C)C(=O)NC(=C(NC/C=C\CNC3=C4NC(=O)/C(C)=C/C=C\[C@H](OC)[C@@H](OC(N)=O)/C(C)=C/[C@H](C)[C@@H](O)[C@@H](OC)C[C@H](C)CC(=C(OC)C3=O)C4=O)C1=O)C2=O`, the EC50 is listed as 345 nM.
The same measure for `COC1=C2C[C@@H](C)C[C@H](OC)[C@H](O)[C@@H](C)/C=C(\C)[C@H](OC(N)=O)[C@@H](OC)/C=C\C=C(/C)C(=O)NC(=C(NCCCCNC3=C4NC(=O)/C(C)=C/C=C\[C@H](OC)[C@@H](OC(N)=O)/C(C)=C/[C@H](C)[C@@H](O)[C@@H](OC)C[C@H](C)CC(=C(OC)C3=O)C4=O)C1=O)C2=O`: 91 nM.
The molecule `COC1=C2C[C@@H](C)C[C@H](OC)[C@H](O)[C@@H](C)/C=C(\C)[C@H](OC(N)=O)[C@@H](OC)/C=C\C=C(/C)C(=O)NC(=C(NC/C=C/CNC3=C4NC(=O)/C(C)=C/C=C\[C@H](OC)[C@@H](OC(N)=O)/C(C)=C/[C@H](C)[C@@H](O)[C@@H](OC)C[C@H](C)CC(=C(OC)C3=O)C4=O)C1=O)C2=O` had an EC50 of 45 nM.
Then `COC1=C2C[C@@H](C)C[C@H](OC)[C@H](O)[C@@H](C)/C=C(\C)[C@H](OC(N)=O)[C@@H](OC)/C=C\C=C(/C)C(=O)NC(=C(NCCCCCCCCCNC3=C4NC(=O)/C(C)=C/C=C\[C@H](OC)[C@@H](OC(N)=O)/C(C)=C/[C@H](C)[C@@H](O)[C@@H](OC)C[C@H](C)CC(=C(OC)C3=O)C4=O)C1=O)C2=O`, with 465 nM.
